{"source": "patent US20170281607A1", "about": "“PHARMACEUTICAL COMPOSITIONS AND METHODS FOR THE TREATMENT OF DIABETES” (University of Limerick, priority 2016, published 2017)", "origin": "cited, not measured here", "conditions": "in vivo", "data": [{"smiles": "COc1ccc2c(c1)[nH]c1c(C)nccc12", "note": "[harmine, 7-Methoxy-1-methyl-9H-pyrido[3,4-b]indole]", "values": [{"measurement": "half-life", "value": "1 to 3", "unit": "h"}]}]}
